US20160075682A1, “INHIBITORS OF NICOTINAMIDE PHOSPHORIBOSYLTRANSFERASE, COMPOSITIONS, PRODUCTS AND USES THEREOF” (UNIVERSITÀ DEGLI STUDI DEL PIEMONTE ORIENTALE "AMEDEO …, priority 2013, published 2016)
pIC50: −log10 of the molar value.

Columns and labels:
[1] = system: SH-SY5Y, HeLa; experiment: MTT cell proliferation assay and trypan blue count (cell viability); format: cell-based; details: cells treated for 48 and 72 hours; read-out: IC50 values (inhibition of cellular proliferation, MTT assay and trypan blue assay)
Experimental: Cell based assays were used to evaluate the possible cytotoxic effects of some compounds. To measure cytotoxic effects two different methods were used, a MTT cell proliferation assay and trypan blue count.
The Trypan blue assay is used to determine the number of viable cells present in a cell suspension. […] Briefly, 8×10^5 cells (SH-SY5Y, HeLa; obtained from ATCC, LGC standards, Sesto San Giovanni) were seeded in 24-well plates and treated for 48 and 72 hours. After the treatments, cells were stained with trypan blue and counted.
To analyze cell viability was used the colorimetric 3-(4,5-dimethylthiazol-2-yl)-2,5-diphenyltetrazolium bromide (MTT) method. The assay is based on the cleavage of the yellow tetrazolium salt MTT to purple formazan crystals by metabolic active cells. Since reduction of MTT can only occur in metabolically active cells, the level of activity is a measure of the viability of cells and conversely the cytotoxic effects of various treatments. Briefly, 8×10^5 cells (SH-SY5Y, code number CRL-2266; and HeLa, code number CCL-2) were seeded in 24-well plates and treated for 48 and 72 hours. Compounds were dissolved in DMSO and were added to the cells to give a final DMSO concentration no greater than 0.5%. Cells were washed once in Locke buffer and 300 μl of MTT (250 μg/ml in Locke buffer) were added before returning the cells to the incubator for 1 h to allow the formation of the purple formazan crystals. After 1 h, 600 μl of isopropanol/0.1 M HCl were added to each well, and the absorbance was read at 570 nm in a plate reader (Victor3V, PerkinElmer Life Sciences). For some compounds a dose response curve and IC50 for the effects on cell viability and proliferation were calculated. Cell lines used were originally purchased from ATCC (LGC standards. Sesto San Giovanni).
To evaluate the ability of each compound to inhibit cellular proliferation, cells were seeded in 24-well plates and treated for 48 and 72 hours. After the treatments the MTT assay and trypan blue assay were performed.

[2] = Metabolites generated from hydrolyses in RLM or HLM incubations (LC-ESI-MS); format: in vitro ADME, rat, human; details: RLM or HLM incubation, 60 minutes at 37° C.
Experimental: (§1) Male Wistar rat liver microsomes (RLM), (protein concentration: 25 mg/ml determined using the Omura and Sato method, total P450: 0.64 nmol/mg protein) were used throughout this study and prepared using an internal protocol. The cryopreserved pooled human liver microsomes (HLM), (pooled mixed sex, ten individual donors, protein concentration: 20 mg/ml, total P450: 0.36 nmol/mg) were purchased from BD Gentest™ (Woburn, Mass.) and used throughout this study.
(§2) The standard incubation mixture (1 ml final volume), was carried out in a 50 mM TRIS (Tris[hydroxymethyl]aminomethane) buffer (pH 7.4) containing 10 μl of acetonitrile (1% of total volume), and 50 μM substrate compounds. After pre-equilibration of the mixture, an appropriate volume of RLM or HLM suspension was added to give a final protein concentration of 1.0 mg/mL. The mixture was shaken for 60 minutes at 37° C. Control incubations were carried out without microsomes. Each incubation was stopped by addition of 1 ml ice-cold acetonitrile, vortexed and centrifuged at 11,000 r.p.m. for 5 min. The supernatants were analysed by LC-DAD-UV and LC-ESI-MS systems to determine the metabolic stability (% substrate residue) and the structure of metabolites respectively (Table 1).
(§3) A Shimadzu HPLC system (Shimadzu, Kyoto, Japan), consisting of two LC-10AD Vp module pumps, an SLC-10A Vp system controller, an SIL-10AD Vp autosampler, and a DGU-14-A on-line degasser were used for the analysis. Chromatographic separation was performed on a Phenomenex Luna C18(2) 150×4.6 mm (5 μm) (Phenomenex srl, Castel Bolognese, Italy) as a stationary phase protected by a C18 SecurityGuard (Phenomenex srl, Castel Bolognese, Italy). The SPD-M10Avp photodiode array detector was used to detect the analytes. LC-Solution 1.24 software was used to process the chromatograms. Aliquots (20 μL) of supernatants obtained from incubations were injected onto the HPLC system and eluted with a mobile phase (flow rate 1.0 mL/min) consisting of a A: 0.5% formic acid solution, B: acetonitrile/methanol 8:2. A Thermo Finningan LCQ Deca XP plus system equipped with a quaternary pump, a Surveyor AS autosampler, a Surveyor photodiode array detector and a vacuum degasser was used for LC/MS analyses (Thermo Electron Corporation, Waltham, Mass.). All the chromatographic separations were performed on a Phenomenex Luna C18(2)150×2 mm (4 μm) (kept at a 35° C.) as a stationary phase protected by a C18 SecurityGuard (Phenomenex srl, Castel Bolognese, Italy). Aliquots (2.0 μl) of supernatants obtained from incubations were injected onto the system and eluted with a mobile phase (flow rate 0.2 ml/min) consisting of a A: 0.2% formic acid solution, B: acetonitrile/methanol 8:2. The eluate was injected into the electrospray ion source (ESI) and MS and MS^n spectra were acquired and processed using Xcalibur® software. The operating conditions on the ion trap mass spectrometer were as follows: Positive mode, spray voltage, 5.30 kV; source current, 80 μA; capillary temperature, 350° C.; capillary voltage, 21.00 V; tube lens offset, 15.00 V; multipole 1 offset, −5.75 V; multipole 2 offset, −9.00 V; sheath gas flow (N2), 55 Auxiliary Units.

[3] = Microsomal stability with rat liver microsomes; format: in vitro ADME, Male Wistar rat; details: 50 μM substrate, 1.0 mg/mL protein, 60 minutes at 37° C., pH 7.4
Experimental: as §1, §2, §3

[4] = Microsomal stability with human liver microsomes; format: in vitro ADME; details: 50 μM substrate, 1.0 mg/mL protein, 60 minutes at 37° C., pH 7.4
Experimental: as §1, §2, §3

[5] = biological target: T1, NAMPT (Homo sapiens, UniProt P43490); experiment: Direct inhibition of NAMPT enzymatic activity (Cyclex NAMPT colorimetric Assay Kit); format: biochemical; details: as assessed with a cycling assay
T1 construct: endogenous in cells; host or cells: SH-SY5Y and HeLa
T1 sequence (P43490 whole entry): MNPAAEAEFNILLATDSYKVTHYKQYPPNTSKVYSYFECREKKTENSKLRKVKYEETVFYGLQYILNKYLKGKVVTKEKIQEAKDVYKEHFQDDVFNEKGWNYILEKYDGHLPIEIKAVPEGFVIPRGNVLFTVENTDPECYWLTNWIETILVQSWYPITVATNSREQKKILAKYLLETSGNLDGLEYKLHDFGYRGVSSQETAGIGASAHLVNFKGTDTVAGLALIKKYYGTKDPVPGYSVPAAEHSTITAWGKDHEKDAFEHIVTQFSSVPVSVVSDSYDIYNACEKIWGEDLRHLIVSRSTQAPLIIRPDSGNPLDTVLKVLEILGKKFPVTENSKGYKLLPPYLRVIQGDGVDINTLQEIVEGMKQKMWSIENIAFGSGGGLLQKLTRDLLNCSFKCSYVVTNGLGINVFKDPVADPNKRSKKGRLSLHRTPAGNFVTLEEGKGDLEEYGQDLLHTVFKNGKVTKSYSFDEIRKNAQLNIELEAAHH
Experimental: Determination of the direct activity of compounds on NAMPT was performed using a commercial kit, Cyclex NAMPT colorimetric Assay Kit.

| Structure (SMILES) | melting point [°C] | pIC50 [1] | inhibition of the enzymatic activity of NAMPT [5] | further results |
| --- | --- | --- | --- | --- |
| c1ccc(-c2ccccc2OCc2ccc(CCn3cc(-c4cccnc4)nn3)cc2)cc1 [3-(1-(4-(([1,1′-biphenyl]-2-yloxy)methyl)phenethyl)-1H-1,2,3-triazol-4-yl)pyridine] | 136 to 137 | > 6.52 | – | – |
| c1ccc(-c2ccccc2-c2cn(CCCCCCCCn3cc(-c4cccnc4)nn3)nn2)cc1 [3-(1-(8-(4-([1,1′-byphenyl]-2-yl)-1H-1,2,3-triazol-1-yl)octyl)-1H-1,2,3-triazol-4-yl)pyridine] | 136 to 140 | > 6.52 | – | – |
| c1ccc(-c2ccccc2-c2cn(CCCCCCCn3cc(-c4cccnc4)nn3)nn2)cc1 [3-(1-(7-(4-([1,1′-byphenyl]-2-yl)-1H-1,2,3-triazol-1-yl)heptyl)-1H-1,2,3-triazol-4-yl)pyridine] | – | > 6.52 | – | Metabolites generated from hydrolyses [2]: no; RLM stability % substrate residue (area peak) [3]: >99%; HLM stability % substrate residue (area peak) [4]: >99% |
| O=C(Nc1ccccc1-c1ccccc1)OCCCCCCCCn1cc(-c2cccnc2)nn1 [8-(4-(pyridin-3-yl)-1H-1,2,3-triazol-1-yl)octyl[1,1′-biphenyl]-2-ylcarbamate] | 81 to 85 | > 6.52 | – | – |
| O=C(NCCCc1ccc(-n2cc(-c3cccnc3)nn2)cc1)c1ccccc1-c1ccccc1 [N-(3-(4-(4-(pyridin-3-yl)-1H-1,2,3-triazol-1-yl)phenyl)propyl)-[1,1′-biphenyl]-2-carboxamide] | 202 to 203 | > 6.52 | – | – |
| c1ccc(-c2ccccc2OCCCCCCCn2cc(-c3cccnc3)nn2)cc1 [3-(1-(7-([1,1′-biphenyl]-2-yloxy)heptyl)-1H-1,2,3-triazol-4-yl)pyridine] | – | > 6.52 | able to inhibit | – |
| Cc1ccccc1-c1ccccc1C(=O)NCCCCCCCn1cc(-c2cccnc2)nn1 [2′-methyl-N-(7-(4-(pyridin-3-yl)-1H-1,2,3-triazol-1-yl)heptyl)-[1,1′-biphenyl]-2-carboxamide] | – | > 6.52 | able to inhibit | – |
| c1ccc(-c2ccccc2-c2cn(CCc3ccc(Cn4cc(-c5cccnc5)nn4)cc3)nn2)cc1 [3-(1-(4-(2-(4-([1,1′-biphenyl]-2-yl)-1H-1,2,3-triazol-1-yl)ethyl)benzyl)-1H-1,2,3-triazol-4-yl)pyridine] | 139 to 141 | > 6.52 | – | – |
| O=C(NCCCCCCCCn1cc(-c2cccnc2)nn1)Nc1ccccc1-c1ccccc1 [1-([1,1′-biphenyl]-2-il)-3-(8-(4-(pyridin-3-yl)-1H-1,2,3-triazol-1-yl)octyl)urea] | 90 to 95 | > 6.52 | – | – |
| O=C(Nc1ccccc1-c1ccccc1)OCCc1ccc(Cn2cc(-c3cccnc3)nn2)cc1 [4-((4-(pyridin-3-yl)-1H-1,2,3-triazol-1-yl)methyl)phenethyl[1,1′-biphenyl]-2-ylcarbamate] | 131 to 132 | > 6.52 | – | – |
| O=C(NCCCCCCn1cc(-c2cccnc2)nn1)c1ccccc1-c1ccccc1 [N-(6-(4-(pyridin-3-yl)-1H-1,2,3-triazol-1-yl)hexyl)-[1,1′-biphenyl]-2-carboxamide] | – | > 6.52 | able to inhibit | – |
| O=C(NCCCCCCn1cc(-c2cccnc2)nn1)Nc1ccccc1-c1ccccc1 [1-([1,1′-biphenyl]-2-yl)-3-(6-(4-(pyridin-3-yl)-1H-1,2,3-triazol-1-yl)hexyl)urea] | – | > 6.52 | able to inhibit | – |
| O=C(Nc1ccccc1-c1ccccc1)OCCCCCCn1cc(-c2cccnc2)nn1 [6-(4-(pyridin-3-yl)-1H-1,2,3-triazol-1-yl)hexyl[1,1′-biphenyl]-2-ylcarbamate] | – | > 6.52 | able to inhibit | – |
| c1ccc(OCCCCCCCCn2cc(-c3cccnc3)nn2)cc1 [3-(1-(8-phenoxyoctyl)-1H-1,2,3-triazol-4-yl)pyridine] | 102 to 103 | – | – | – |
| O=C(Nc1ccccc1-c1ccccc1)OCCCCCCCn1cc(-c2cccnc2)nn1 [7-(4-(pyridin-3-yl)-1H-1,2,3-triazol-1-yl)heptyl[1,1′-biphenyl]-2-ylcarbamate] | – | > 6.52 | able to inhibit | – |
| c1ccc(-c2cn(CCCCCCCn3cc(-c4cccnc4)nn3)nn2)cc1 [3-(1-(7-(4-phenyl-1H-1,2,3-triazol-1-yl)heptyl)-1H-1,2,3-triazol-4-yl)pyridine] | 143 to 144 | – | – | – |
| c1ccc(-c2ccccc2OCCCCCCCCn2cc(-c3cccnc3)nn2)cc1 [3-(1-(8-([1,1′-biphenyl]-2-yloxy)octyl)-1H-1,2,3-triazol-4-yl)pyridine] | – | > 6.52 | able to inhibit | – |
| c1ccc(-c2ccccc2-c2cn(CCCCCCn3cc(-c4cccnc4)nn3)nn2)cc1 [3-(1-(6-(4-([1,1′-byphenyl]-2-yl)-1H-1,2,3-triazol-1-yl)hexyl)-1H-1,2,3-triazol-4-yl)pyridine] | 139 to 140 | > 6.52 | – | – |
| c1ccc(-c2ccccc2CNCCCCCCCn2cc(-c3cccnc3)nn2)cc1 [N-([1,1′-biphenyl]-2-ylmethyl)-7-(4-(pyridin-3-yl)-1H-1,2,3-triazol-1-yl)heptan-1-amine] | 86 to 91 | > 6.52 | – | – |
| O=C(NCCCCCCCn1cc(-c2cccnc2)nn1)c1ccccc1I [2-iodo-N-(7-(4-(pyridin-3-yl)-1H-1,2,3-triazol-1-yl)heptyl)benzamide] | 106 to 108 | > 6.52 | – | – |
| O=C(NCc1ccc(CCn2cc(-c3cccnc3)nn2)cc1)c1ccccc1-c1ccccc1 [N-(4-(2-(4-(pyridin-3-yl)-1H-1,2,3-triazol-1-yl)ethyl)benzyl)-[1,1′-biphenyl]-2-carboxamide] | 204 to 205 | > 6.52 | – | – |
| c1ccc(-c2ccccc2CNCCCCCCn2cc(-c3cccnc3)nn2)cc1 [N-([1,1′-biphenyl]-2-ylmethyl)-6-(4-(pyridin-3-yl)-1H-1,2,3-triazol-1-yl)hexan-1-amine] | 55 to 58 | > 6.52 | – | – |
